Reference: patent US20030068615A1, “Polypeptides that bind HIV gp120 and related nucleic acids, antibodies, compositions, and methods of use” (priority 1999, published 2003)
Like-named read-outs stand apart in the source and are kept apart here.

Biological target: HIV-1LAI envelope gp120 (Human immunodeficiency virus type 1 group M subtype B, UniProt P03377)
Type: binding
Details: for Counts per 20′ Average-background: CCR5 18-mer scan, radiolabeled HIV-1LAI gp120; for number of radioactive decays (counts) counted: human CD4 21-mer scan, empty control 2075; for Binding Results For Window Length (counts bound-background), 9 / Binding Results For Window Length (counts bound-background), 12 / Binding Results For Window Length (counts bound-background), 15 / Binding Results For Window Length (counts bound-background), 18: STRL33 amino terminus; for Binding Results For Window Length (counts bound-background), 9: 9-mer starting at the first residue of the printed sequence; for Binding Results For Window Length (counts bound-background), 12: 12-mer starting at the first residue of the printed sequence; for Binding Results For Window Length (counts bound-background), 15: 15-mer starting at the first residue of the printed sequence; for Binding Results For Window Length (counts bound-background), 18: 18-mer starting at the first residue of the printed sequence
[1] = Panel D, 9-mers and 12-mers of CD4, empty control […]
[2] = CXCR4 18-mer scan, background subtracted, empty control 0
[3] = CXCR4 18-mer scan, empty control 412
[4] = STRL33 18-mer scan, background subtracted, first of two count columns
[5] = STRL33 18-mer scan, background subtracted, second of two count columns
[6] = Panel B, 15-mers and 18-mers of CD4, empty control 575
[7] = Panel E, 9-mers and 12-mers of CD4, empty control 571
[8] = Panel C, 15-mers and 18-mers of CD4, empty control 556

GNTMCQLLTGLYFIGFFS [CCR5 segment 97-]
Counts per 20′ Average-background (background subtracted): 941 counts per 20′

GQSLTLTLE
COUNTS of radiolabeled gp120 retained [1]: 777 counts

GQVLLESNIKVLPTWSTPVQP [human CD4 376-396]
number of radioactive decays (counts) counted: 2089 counts

GSGDYDSMKEPCFREENA [CXCR4 segment 17-34]
radioactive counts recorded in twenty minutes [2]: −28 counts | radioactive counts recorded in twenty minutes [3]: 384 counts

GVSNQWKSSEDNSKTFSA [STRL33 segment 313-330]
radioactive counts recorded in twenty minutes [4]: 208.5 counts | radioactive counts recorded in twenty minutes [5]: 306.5 counts

GVVTSVITWVVAVFASLP
Counts per 20′ Average-background (background subtracted): 69 counts per 20′

GYHDEAISTVVLATQMTL
radioactive counts recorded in twenty minutes [4]: 754.5 counts | radioactive counts recorded in twenty minutes [5]: 1181.5 counts

HCCINPIIYAFVGEKFRN [CCR5 segment 289-]
Counts per 20′ Average-background (background subtracted): 200 counts per 20′

HDYHEDYGFSSFNDSSQE
Binding Results For Window Length (counts bound-background), 9 (background subtracted): 708 counts | Binding Results For Window Length (counts bound-background), 12 (background subtracted): 1427 counts | Binding Results For Window Length (counts bound-background), 15 (background subtracted): 1772 counts | Binding Results For Window Length (counts bound-background), 18 (background subtracted): 1500 counts

HEDYGFSSFNDSSQEEHQ
Binding Results For Window Length (counts bound-background), 9 (background subtracted): 729 counts | Binding Results For Window Length (counts bound-background), 12 (background subtracted): 1077 counts | Binding Results For Window Length (counts bound-background), 15 (background subtracted): 947 counts | Binding Results For Window Length (counts bound-background), 18 (background subtracted): 537 counts

HEWVFGQVMCKSLLGIYT [STRL33 segment 93-110]
radioactive counts recorded in twenty minutes [4]: 3391.5 counts | radioactive counts recorded in twenty minutes [5]: 3466.5 counts

HFPYSQYQFWKNFQTLKI
Counts per 20′ Average-background (background subtracted): 1008 counts per 20′

HKWISITEALAFFHCCLN [CXCR4 segment 281-298]
radioactive counts recorded in twenty minutes [2]: 163 counts | radioactive counts recorded in twenty minutes [3]: 575 counts

HLLQGQSLT
COUNTS of radiolabeled gp120 retained [1]: 564 counts

HLLQGQSLTLTL
COUNTS of radiolabeled gp120 retained [1]: 701 counts

HLLQGQSLTLTLESP
COUNTS of radiolabeled gp120 retained [6]: 1277 counts

HLTLPQALPQYAGSGNLTLAL [human CD4 281-301]
number of radioactive decays (counts) counted: 2394 counts

HQAFLQFSK
Binding Results For Window Length (counts bound-background), 9 (background subtracted): 2761 counts

HSSVSTESESSSFHSS
radioactive counts recorded in twenty minutes [2]: 103 counts | radioactive counts recorded in twenty minutes [3]: 515 counts

HVIYTVNLYSSVLILAFI [CXCR4 segment 113-130]
radioactive counts recorded in twenty minutes [2]: 118 counts | radioactive counts recorded in twenty minutes [3]: 530 counts

HWEYYAMTSFHYTIMVTE [STRL33 segment 257-274]
radioactive counts recorded in twenty minutes [4]: 2040.5 counts | radioactive counts recorded in twenty minutes [5]: 3065.5 counts

ICDRFYPNDLWVVVFQFQ [CXCR4 segment 185-202]
radioactive counts recorded in twenty minutes [2]: 306 counts | radioactive counts recorded in twenty minutes [3]: 718 counts

ICEVEDQKE
COUNTS of radiolabeled gp120 retained [1]: 596 counts

ICEVEDQKEEVQ
COUNTS of radiolabeled gp120 retained [1]: 585 counts

ICEVEDQKEEVQLLV
COUNTS of radiolabeled gp120 retained [6]: 1084 counts

ICEVEDQKEEVQLLVFGL
COUNTS of radiolabeled gp120 retained [6]: 3898 counts

IDIVVLAFQ
COUNTS of radiolabeled gp120 retained [7]: 691 counts

IDIVVLAFQKAS
COUNTS of radiolabeled gp120 retained [7]: 630 counts

IDIVVLAFQKASSIV
COUNTS of radiolabeled gp120 retained [8]: 865 counts

IDIVVLAFQKASSIVYKK
COUNTS of radiolabeled gp120 retained [8]: 711 counts

IDIVVLAFQKASSIVYKKEGE
COUNTS of radiolabeled gp120 retained (Panel A, 21-mers of CD4, empty control 515 and 617): 962 counts

IDSFILLEIIKQGCEFEN [CXCR4 segment 261-278]
radioactive counts recorded in twenty minutes [2]: 3472 counts | radioactive counts recorded in twenty minutes [3]: 3884 counts

IEDSDTYIC
COUNTS of radiolabeled gp120 retained [1]: 567 counts

IEDSDTYICEVE
COUNTS of radiolabeled gp120 retained [1]: 1107 counts

IEDSDTYICEVEDQK
COUNTS of radiolabeled gp120 retained [6]: 1143 counts

IEDSDTYICEVEDQKEEV
COUNTS of radiolabeled gp120 retained [6]: 1230 counts

IFANVSEADDRYICDRFY
radioactive counts recorded in twenty minutes [2]: 267 counts | radioactive counts recorded in twenty minutes [3]: 679 counts

IFFCVRCRHRRRQAERMSQIK
number of radioactive decays (counts) counted: 2085 counts

IFLVMAVFLLTQMPFNLM [STRL33 segment 233-250]
radioactive counts recorded in twenty minutes [4]: 386.5 counts | radioactive counts recorded in twenty minutes [5]: 772.5 counts

IFTIMIVYFLFWAPYNIV [CCR5 segment 237-]
Counts per 20′ Average-background (background subtracted): 121 counts per 20′

IFTRSQKEGLHYTCSSHF
Counts per 20′ Average-background (background subtracted): 98 counts per 20′

IFYHKLQSLTDVFLVNLP [STRL33 segment 57-74]
radioactive counts recorded in twenty minutes [4]: 1275.5 counts | radioactive counts recorded in twenty minutes [5]: 1256.5 counts

IGISIDSFILLEIIKQGC [CXCR4 segment 257-274]
radioactive counts recorded in twenty minutes [2]: 734 counts | radioactive counts recorded in twenty minutes [3]: 1146 counts

IIISKLSHSKGHQKRKAL
radioactive counts recorded in twenty minutes [2]: 157 counts | radioactive counts recorded in twenty minutes [3]: 569 counts
